Data: patent EP0407583A1, “DERIVATIVES OF DICHLOR[…] ACYLAMIDO[…] AND INSECTICIDAL, FU[…] HEMATOCIDAL PREPARATIONS BASED ON THEM” (priority 1989, dated 1990)

How the values were obtained:
mice and rats = conditions: for mice and rats; cited from earlier work
[1] = test system: invasion larvae of gall nematodes; experiment: Nematocidal effect on invasion larvae, experimental (object glass) test; assay type: in vivo; conditions: 1% solution in distilled water; 100 invasion larvae; 24 hours
Procedure: A nematocidal effect of the composition, according to the invention, was tested on invasion larvae of gall nematodes. To this end, 1 droplet of a suspension containing 100 invasion larvae of gall nematodes was placed onto the object glasses with cells. 1 droplet of the composition of the invention was added thereinto. 1 drop of distilled water was added to the control cell instead of the composition, according to the invention. The glasses with test and control cells were placed onto Petri dish with a moisten ashless filter, and 24 hours later the killed nematodes were recorded. The tests were 3-fold repeated. The study of a nematocidal activity was conducted in comparison with a known nematocidal composition based on 0,0-dimethyl-0-/2-(N,N'-diethylcarbamoyl)-1-methyl-2-chlorovinyl/ /phosphate.

[2] = test system: leaves of tomato and cucumber; experiment: Phytotoxic effect on leaves; assay type: in vivo; conditions: nematocidal composition, 1% solution in distilled water
gall nematodes = experiment: Nematocidal effect, field test on affected tomato plants; assay type: in vivo; conditions: 5 m^2 plots of tomato plants affected by nematodes
Procedure: In the field conditions, the plots of 5 m^2 in size of tomato plants affected by nematodes were treated with the claimed nematocidal compositions and the known nematocides.

Solubility (qualitative) = conditions: water, alcohols, acetone
[3] = Toxicity LD50 of the compound; assay type: in vivo; conditions: species and route not given
Candida albicans [4] = experiment: Fungicidal activity, laboratory test on Sabouraud medium; assay type: cell-based; conditions: composition 0.01 % by mass in distilled water
Candida albicans [5] = experiment: Fungicidal activity, large-scale test on contaminated surfaces and fabrics; assay type: cell-based; conditions: composition 0.01 % by mass; surfaces of ceramics, metal, wood, rubber, fabrics
Procedure: (§1) The large-scale tests were carried out by using Candida albicans and Candida tropicalis strains 2-day culture of which was diluted with an isotonic solution of sodium chloride to the concentration of 5x10^7 cells in 1 ml.
(§2) The suspended cell culture was applied onto the surface (7 mm in diameter) of articles made of ceramics, metal, wood and rubber as well as cotton, flannel woollen fabrics which were presterillized.
(§3) In a day after incubating from the treated surfaces, the washings were taken with a cotton-gauze tampon wetted with Sabouraud^ts liquid medium, immersed into the tubes with a similar medium and placed into a thermostat at 37 °C for two days. Thereafter, the inoculum was introduced in Sabouraud's stiff agar, and the growth records were made by a conventional procedure.

Candida tropicalis [6] = experiment: as above; assay type: cell-based; conditions: composition 0.01 % by mass; surfaces of ceramics, metal, wood, rubber, fabrics
Procedure: as §1, §2, §3

Candida tropicalis [7] = experiment: Fungicidal activity, laboratory test on Sabouraud medium; assay type: cell-based; conditions: composition 0.01 % by mass in distilled water
Procedure: A fungicidal composition based on this compound was prepared which was a solution of it in distilled water at the concentration pf 0.01 % by mass. A fungicidal activity of the composition, according to the invention, was tested in laboratory conditions for inhibiting the growth of fungi such as Candida tropicalis affecting the macosal and skin coats, and internals.
To this, the Petri dishes containing the Sabouraud growth medium were inoculated with a suspension of microorganisms at the concentration of 5x10^7 cells of fungi in 1 ml.
The restricted surface areas (7 mm in diameter) were coated with the composition by means of a small metal spatula 4x4 mm in size. In a day of incubating at 37 °C in a thermostat, the composition inhibited the growth of yeast--like fungi. An antifungal activity of the composition was specified by a method of 10-fold serial dilution using Sabouraud's liquid medium in 2 ml of which 2x10^5 cells were introduced. After two days of incubation in the thermostat at 34 °C, a minimum dilution of the substance exerting a fungicidal effect was determined.

## COP(=O)(OC)C(O)C(Cl)(Cl)Cl (centres unmarked) [Known composition, 0,0-dimethyl(1-hydroxy-2,2,2-trichloroethyl)phosphonate]
Mice and rats
  LD50: 225 to 1200 mg/kg

## O=C(NP(=O)(Nc1ccccc1Cl)Nc1ccccc1Cl)c1ccc(Br)cc1 [Example 17, para-bromobenzoylamidophosphoric acid di-ortho-chloroanilide]
[1]
  Death of larvae, %, conditions experimental: 100%
[2]
  phytotoxical effect on leaves of tomato and cucumber: no phytotoxical effect
Gall nematodes
  Death of larvae, %, conditions field: 100%
Solubility (qualitative)
  solubility: soluble in water, alcohols, acetone

## O=C(NP(=O)(Sc1ccc(Cl)cc1)Sc1ccc(Cl)cc1)C(Cl)(Cl)CCl [Example 9, di--para-chlorothiophenyl ether of α, α,β-trichloropropio- nylamidophosphoric acid]
[3]
  LD50: 670 ml/k^g
Candida albicans [4]
  Inhibition of growth of fungal colonies, % Candida albicans tests laboratory: 100%
Solubility (qualitative)
  solubility: soluble in water, alcohols, acetone
Candida albicans [5]
  Inhibition of growth of fungal colonies, % Candida albicans tests large-scale: 100%
Candida tropicalis [6]
  Inhibition of growth of fungal colonies, % Candida tropicalis tests large-scale: 100%
Candida tropicalis [7]
  Inhibition of growth of fungal colonies, % Candida tropicalis tests laboratory: 100%
